The values that follow come from patent publication US9624247B2, “Pyrazolo-pyrrolidin-4-one derivatives as bet inhibitors and their use in the treatment of disease” (NOVARTIS AG, priority 2013, dated 2017).

One assay deals with THP-1 cells. In words: Cell growth inhibition assay (CellTiter-Glo), THP-1. It counts as cell-based, human. The following applies: THP-1, 4 days; for GI50: Homo sapiens, 96 h, half-maximal growth inhibition; for THP-1 TGI: total growth inhibition. The procedure, abridged:
(§1)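 Leukemia cells were exposed for 4 days at 37 °C to 3-fold dilution series from 10 μM (0.1% DMSO), then viable cells were quantified by CellTiter-Glo ATP luminescence. Signal was corrected for background and a day-0 plate, with vehicle set at 100% and medium-only at −100%. IC50 and TGI were obtained by four-parameter fit.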

Another assay deals with BRD3 (His-Brd3(20-477)) (Homo sapiens (Human), UniProt Q15059). Description: TR-FRET in-vitro binding assay for BRD3. The following applies: acetyl-histone H4 peptide. On the technique in general: Time-resolved FRET reads energy transfer from a long-lived donor to a nearby acceptor.
Assay [1] addresses nuclear BRD4-NUT foci in HCC2494 NUT midline carcinoma cells (Homo sapiens (Human), UniProt O60885+Q86Y26). Description: Nut-foci formation assay (HCS). It is filed as cell-based. The following applies: 24 hours, NUT-foci immunofluorescence. As to the method: HCC2494 NUT midline carcinoma cells (expressing BRD4-NUT-fusion) were obtained from the University of Texas Southwestern and cultured in RPMI-1640 medium containing 10% Foetal Calf Serum at 37° C. in a humidified 5% CO2 incubator.
Compound-mediated inhibition of BRD4 activity was monitored by quantification of the number and intensity of nuclear BRD4-NUT foci using automated immunofluorescence microscopy. Briefly, 5000 cells in 20 μl fresh medium were seeded into Poly-D-Lysine-precoated 384-well plates and incubated overnight at 37° C. and 5% CO2, followed by addition of 5 μl medium containing compound dilutions at 5-fold their final intended concentration. Dose-response effects were assessed by 3-fold serial dilutions of the test compound, starting at 10 μM. Following incubation of the cells for 24 hours at 37° C. and 5% CO2, the cells were fixed by incubation with 3.7% formaldehyde for 10 min, followed by immunofluorescence staining using rabbit anti-NUT (Cell Signaling Technologies, Cat#3625) as primary, and AlexaFluor488-labeled goat anti-rabbit (Invitrogen, Cat#A11008) as secondary antibody (latter complemented with 1 μg/mL Hoechst33342 as DNA dye). Assay plates were imaged using the appropriate filter sets on the Cellomics VTi automated fluorescence microscopy platform (ThermoFisher Scientific) and the population average of the number of NUT-foci per nucleus is quantified using the Cellomics Spot Detection BioApplication image analysis algorithm (ThermoFisher Scientific). The effect of a particular test compound concentration on NUT-foci number and intensity is expressed as percentage of the value obtained for cells treated with vehicle only (DMSO, 0.1% final concentration), which was set as 100. Compound concentrations leading to half-maximal (IC50) inhibition of the aforementioned readout parameters were determined using standard four parameter curve fitting.

In another assay the test system is K-562 cells. In words: Cell growth inhibition assay (CellTiter-Glo), K-562. It is filed as cell-based, human. The following applies: K-562, 4 days; for GI50: Homo sapiens, K562, 96 h, half-maximal growth inhibition; for K-562 TGI: total growth inhibition. The procedure, abridged: as §1
On the technique in general: Cellular ATP, detected with luciferase, serves as a proxy for viable cell number.

One may read the GI50 as the concentration at which growth is held to half of that of the control. What is called IC50 is the point on the concentration scale where inhibition reaches its midpoint. Read a low IC50 as greater potency in that assay.

BRD3 (His-Brd3(20-477)), sequence (Q15059 20-477): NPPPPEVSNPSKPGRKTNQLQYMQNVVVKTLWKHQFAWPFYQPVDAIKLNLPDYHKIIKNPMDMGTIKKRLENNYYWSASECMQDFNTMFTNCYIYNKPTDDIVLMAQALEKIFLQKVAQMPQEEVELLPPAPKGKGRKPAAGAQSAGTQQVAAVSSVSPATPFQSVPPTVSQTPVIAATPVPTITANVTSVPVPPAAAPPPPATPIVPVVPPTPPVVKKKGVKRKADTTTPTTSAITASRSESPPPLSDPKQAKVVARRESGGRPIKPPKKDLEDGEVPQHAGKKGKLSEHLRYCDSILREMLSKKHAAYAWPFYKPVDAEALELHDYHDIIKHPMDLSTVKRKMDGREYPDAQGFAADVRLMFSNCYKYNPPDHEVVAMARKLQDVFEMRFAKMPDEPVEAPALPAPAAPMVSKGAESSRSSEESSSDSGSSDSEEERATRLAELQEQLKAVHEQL

As for `Cc1cc(N2C(=O)c3c(C4CC4)nn(C)c3C2c2ccc(Cl)cc2)cn2c(C(F)F)nnc12` (racemic) [Example 3, 6-(4-chlorophenyl)-3-cyclopropyl-5-(3-(difluoromethyl)-8-methyl-[1,2,4]triazolo[4,3-a]pyridin-6-yl)-1-methyl-5,6-dihydropyrrolo[3,4-c]pyrazol-4(1H)-one], the 50% growth inhibitory concentration (GI50) worked out at 12.4 nM with THP-1 cells and 73.5 nM in the assay on K-562 cells. For the same molecule, the “THP-1 TGI” value in the assay on THP-1 cells was 29.45 nM. Besides, the IC50 at BRD3 (His-Brd3(20-477)) is below 11 nM; in assay [1] it was 8.27 nM. Also, the “K-562 TGI” value with K-562 cells was above 10000 nM.
As to `COCCn1nc(C2CC2)c2c1C(c1ccc(Cl)cc1)N(c1cc(C)c3nnc(C)n3c1)C2=O` (racemic) [Example 4, 6-(4-chlorophenyl)-3-cyclopropyl-5-(3,8-dimethyl-[1,2,4]triazolo[4,3-a]pyridin-6-yl)-1-(2-methoxyethyl)-5,6-dihydropyrrolo[3,4-c]pyrazol-4(1H)-one], the 50% growth inhibitory concentration (GI50) was determined as 11.9 nM in the assay on THP-1 cells and 56.8 nM in the assay with K-562 cells. Moreover, in the assay with THP-1 cells, the “THP-1 TGI” value was 27.95 nM. Moreover, the 50% inhibitory concentration (IC50) is below 11 nM at BRD3 (His-Brd3(20-477)) and 9.04 nM in assay [1]. For the same molecule, the “K-562 TGI” value in the assay with K-562 cells was above 10000 nM.
As to `COc1cc(N2C(=O)c3c(C4CC4)nn(C)c3C2c2ccc(Cl)cc2)cn2c(C)nnc12` (racemic) [Example 5, 6-(4-chlorophenyl)-3-cyclopropyl-5-(8-methoxy-3-methyl-[1,2,4]triazolo[4,3-a]pyridin-6-yl)-1-methyl-5,6-dihydropyrrolo[3,4-c]pyrazol-4(1H)-one], the results for the 50% growth inhibitory concentration (GI50) in the assay with THP-1 cells and with K-562 cells were 81.4 nM and 373 nM, respectively. The “THP-1 TGI” value in the assay with THP-1 cells was 147.5 nM. The half-inhibitory concentration (IC50) on BRD3 (His-Brd3(20-477)) worked out at 44 nM; in assay [1] it was 36 nM. For the same molecule, in the assay with K-562 cells, the “K-562 TGI” value is above 10000 nM.
In the case of `Cc1cc(N2C(=O)c3c(C4CC4)nn(C)c3C2c2ccc(Cl)cc2)cn2c(CF)nnc12` (racemic) [Example 16, 6-(4-chlorophenyl)-3-cyclopropyl-5-(3-(fluoromethyl)-8-methyl-[1,2,4]triazolo[4,3-a]-pyridin-6-yl)-1-methyl-5,6-dihydropyrrolo[3,4-c]pyrazol-4(1H)-one], in the assay on THP-1 cells, the GI50 was found to be 18.7 nM and the “THP-1 TGI” value was 51.6 nM. This molecule also registered an IC50 on BRD3 (His-Brd3(20-477)) of 13 nM. In addition, in assay [1], the IC50 was 12.1 nM. Also, in the assay with K-562 cells, it took 122 nM to inhibit growth by half (GI50) and the “K-562 TGI” value was above 10000 nM.
For the molecule `Cc1cc(N2C(=O)c3c(C4CC4)nn(C)c3C2c2ccc(Cl)cc2)cn2c(C)nnc12` (stereo not drawn) [Example 1, 6-(4-chlorophenyl)-3-cyclopropyl-5-(3,8-dimethyl-[1,2,4]triazolo[4,3-a]pyridin-6-yl)-1-methyl-5,6-dihydropyrrolo[3,4-c]pyrazol-4(1H)-one], in the assay with THP-1 cells, the concentration for 50% growth inhibition (GI50) turned out to be 9.6 nM and the “THP-1 TGI” value stood at 20.4 nM. In addition, the IC50 at BRD3 (His-Brd3(20-477)) was 31 nM. This molecule also yielded an IC50 in assay [1] of 16.2 nM. Further, in the assay on K-562 cells, the GI50 was found to be 51.9 nM and the “K-562 TGI” value is above 10000 nM.
For `Cc1cc(N2C(=O)c3c(C4CC4)nn(C)c3[C@H]2c2ccc(Cl)cc2)cn2c(C)nnc12` [Example 2, (R)-6-(4-chlorophenyl)-3-cyclopropyl-5-(3,8-dimethyl-[1,2,4]triazolo[4,3-a]pyridin-6-yl)-1-methyl-5,6-dihydropyrrolo[3,4-c]pyrazol-4(1H)-one], in the assay on THP-1 cells, it took 6.37 nM to inhibit growth by half (GI50) and the “THP-1 TGI” value was 14.95 nM. At BRD3 (His-Brd3(20-477)), this molecule registered an IC50 of 12 nM. The molecule further showed an IC50 in assay [1] of 4.71 nM. Also, in the assay on K-562 cells, it took 29.2 nM to inhibit growth by half (GI50) and the “K-562 TGI” value is above 10000 nM.
Take `COc1cc(N2C(=O)c3c(C4CC4)nn(C)c3C2c2ccc(Cl)cc2)cc2c1nnn2C` (stereo not drawn) [Example 6]: the 50% growth inhibitory concentration (GI50) came out at 63 nM in the assay with THP-1 cells and 204 nM in the assay on K-562 cells. The “THP-1 TGI” value in the assay with THP-1 cells is 118.1 nM. Besides, the 50% inhibitory concentration (IC50) on BRD3 (His-Brd3(20-477)) came out at 25 nM; in assay [1], 54.8 nM. Also, the “K-562 TGI” value in the assay with K-562 cells was above 10000 nM.
For the molecule `Cc1cc(N2C(=O)c3c(C4CC4)nn(C)c3[C@H]2c2ccc(Cl)cc2)cn2c(C(F)F)nnc12` [Example 7, (R)-6-(4-chlorophenyl)-3-cyclopropyl-5-(3-(difluoromethyl)-8-methyl-[1,2,4]triazolo-[4,3-a]pyridin-6-yl)-1-methyl-5,6-dihydropyrrolo[3,4-c]pyrazol-4(1H)-one], the 50% growth inhibitory concentration (GI50) in the assay with THP-1 cells turned out to be 5.65 nM; in the assay on K-562 cells it was 46.3 nM. Also, in the assay on THP-1 cells, the “THP-1 TGI” value is 14.8 nM. Further, the IC50 on BRD3 (His-Brd3(20-477)) was determined as 12 nM; in assay [1] it was 2.14 nM. The “K-562 TGI” value in the assay with K-562 cells is above 10000 nM.
In the case of `COCCn1nc(C2CC2)c2c1C(c1ccc(Cl)cc1)N(c1cc(C)c3nnc(CF)n3c1)C2=O` (stereo not drawn) [Example 18, 6-(4-chlorophenyl)-3-cyclopropyl-5-(3-(fluoromethyl)-8-methyl-[1,2,4]triazolo[4,3-a]-pyridin-6-yl)-1-(2-methoxyethyl)-5,6-dihydropyrrolo[3,4-c]pyrazol-4(1H)-one], in the assay on THP-1 cells, halving of growth (GI50) required 19.2 nM and the “THP-1 TGI” value is 46.45 nM. On BRD3 (His-Brd3(20-477)), this molecule returned an IC50 of 24 nM. 3.65 nM corresponded to half-maximal inhibition in assay [1] (IC50). Further, in the assay on K-562 cells, the GI50 was determined as 139 nM and the “K-562 TGI” value was above 10000 nM.
On to `Cc1nnc2c(NC(=O)OC(C)(C)C)cc(N3C(=O)c4c(C5CC5)nn(C)c4C3c3ccc(Cl)cc3)cn12` (stereo not drawn) [Example 27, tert-butyl (6-(6-(4-chlorophenyl)-3-cyclopropyl-1-methyl-4-oxopyrrolo[3,4-c]pyrazol-5(1H,4H,6H)-yl)-3-methyl-[1,2,4]triazolo[4,3-a]pyridin-8-yl)carbamate], for which, in the assay with THP-1 cells, halving of growth (GI50) required 22.8 nM and the “THP-1 TGI” value is 44.65 nM. This molecule returned a 50% inhibitory concentration (IC50) on BRD3 (His-Brd3(20-477)) of 65 nM. The molecule further gave an IC50 in assay [1] of 22.4 nM. Moreover, in the assay on K-562 cells, the GI50 turned out to be 164 nM and the “K-562 TGI” value is above 10000 nM.
On to `CCOC(=O)Nc1cc(N2C(=O)c3c(C4CC4)nn(C)c3C2c2ccc(Cl)cc2)cn2c(C)nnc12` (stereo not drawn) [Example 29, ethyl (6-(6-(4-chlorophenyl)-3-cyclopropyl-1-methyl-4-oxopyrrolo[3,4-c]pyrazol-5-(1H,4H,6H)-yl)-3-methyl-[1,2,4]triazolo[4,3-a]pyridin-8-yl)carbamate], for which the GI50 with THP-1 cells was determined as 2.59 nM; with K-562 cells, 23.6 nM. Moreover, the “THP-1 TGI” value with THP-1 cells is 7.62 nM. Also, the IC50 at BRD3 (His-Brd3(20-477)) was 22 nM; in assay [1] it was 2.2 nM. Further, the “K-562 TGI” value in the assay on K-562 cells was above 10000 nM.
